In ChEMBL document CHEMBL3813628, “Molecular similarity guided optimization of novel Nrf2 activators with 1,2,4-oxadiazole core” (Bioorg Med Chem, 2016):

Key:
Type in all cases: cell-based
[1] = target: T1, Nuclear factor erythroid 2-related factor 2 (Homo sapiens) (UniProt Q16236); assay: Activation of Nrf2 in human HepG2 cells at 20 uM incubated for 12 hrs by ARE-driven luciferase reporter gene assay relative to control
T1 sequence (whole entry): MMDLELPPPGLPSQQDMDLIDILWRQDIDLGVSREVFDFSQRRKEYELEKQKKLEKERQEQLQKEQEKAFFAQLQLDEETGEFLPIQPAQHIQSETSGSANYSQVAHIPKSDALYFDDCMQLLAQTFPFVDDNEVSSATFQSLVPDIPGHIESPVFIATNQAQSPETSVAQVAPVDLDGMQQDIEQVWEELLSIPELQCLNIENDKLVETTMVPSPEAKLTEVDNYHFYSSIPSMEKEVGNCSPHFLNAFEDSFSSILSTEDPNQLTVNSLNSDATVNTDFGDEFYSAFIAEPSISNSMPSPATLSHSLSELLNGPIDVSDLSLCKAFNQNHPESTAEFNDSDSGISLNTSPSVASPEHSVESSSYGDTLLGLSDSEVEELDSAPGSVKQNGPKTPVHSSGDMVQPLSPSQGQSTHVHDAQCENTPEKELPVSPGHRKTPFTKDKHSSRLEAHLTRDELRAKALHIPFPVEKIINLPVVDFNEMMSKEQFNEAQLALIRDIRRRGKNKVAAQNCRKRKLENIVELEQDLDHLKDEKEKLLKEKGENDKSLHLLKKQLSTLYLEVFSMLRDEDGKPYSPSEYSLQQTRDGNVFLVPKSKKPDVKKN

[2] = target: T1, Nuclear factor erythroid 2-related factor 2 (Homo sapiens); assay: Activation of Nrf2 in human HepG2 cells at 5 uM incubated for 12 hrs by ARE-driven luciferase reporter gene assay relative to control
[3] = target: T1, Nuclear factor erythroid 2-related factor 2 (Homo sapiens); assay: Activation of Nrf2 in human HepG2 cells at 40 uM incubated for 12 hrs by ARE-driven luciferase reporter gene assay relative to control
[4] = target: T1, Nuclear factor erythroid 2-related factor 2 (Homo sapiens); assay: Activation of Nrf2 in human HepG2 cells at 80 uM incubated for 12 hrs by ARE-driven luciferase reporter gene assay relative to control
[5] = target: T1, Nuclear factor erythroid 2-related factor 2 (Homo sapiens); assay: Activation of Nrf2 in human HepG2 cells at 0.2 uM incubated for 12 hrs by ARE-driven luciferase reporter gene assay relative to control
[6] = target: T1, Nuclear factor erythroid 2-related factor 2 (Homo sapiens); assay: Activation of Nrf2 in human HepG2 cells at 2 uM incubated for 12 hrs by ARE-driven luciferase reporter gene assay relative to control
[7] = target: T1, Nuclear factor erythroid 2-related factor 2 (Homo sapiens); assay: Activation of Nrf2 in human HepG2 cells at 0.02 uM incubated for 12 hrs by ARE-driven luciferase reporter gene assay relative to control
[8] = target: T1, Nuclear factor erythroid 2-related factor 2 (Homo sapiens); assay: Activation of Nrf2 in human HepG2 cells at 160 uM incubated for 12 hrs by ARE-driven luciferase reporter gene assay relative to control

| Structure (SMILES) | fold change (FC) [1] | fold change (FC) [2] | fold change (FC) [3] | fold change (FC) [4] | fold change (FC) [5] | fold change (FC) [6] | fold change (FC) [7] | fold change (FC) [8] |
| --- | --- | --- | --- | --- | --- | --- | --- | --- |
| CC(C)n1c(=O)[nH]c2cc(-c3noc(/C=C/c4ccccc4)n3)ccc21 | 5.19 | 3.19 |  |  |  |  |  |  |
| CCCn1c(=O)[nH]c2cc(-c3noc(C4CCCC4)n3)ccc21 | 7.27 | 3.2 | 7.03 | 6.01 | 4.19 | 4.86 | 3.71 | 8.4 |
| CN(C)c1cccc(-c2nc(-c3ccc4c(c3)[nH]c(=O)n4C3CCCC3)no2)c1 | 5.38 | 1.94 | 8.89 | 3.08 | 3.53 | 3.64 | 2.59 | 3.06 |
| CC(C)n1c(=O)[nH]c2cc(-c3noc(C4CCCCC4)n3)ccc21 | 6.28 | 4.98 | 7.33 | 6.17 | 6.14 | 7.51 | 3.81 | 5.74 |

Continued, values first:

| fold change (FC) [1] | fold change (FC) [2] | fold change (FC) [3] | fold change (FC) [4] | fold change (FC) [5] | fold change (FC) [6] | fold change (FC) [7] | fold change (FC) [8] | Structure (SMILES) |
| --- | --- | --- | --- | --- | --- | --- | --- | --- |
| 4.52 | 2.36 |  |  |  |  |  |  | CCc1ccc(-c2nc(-c3ccc4oc(C)nc4c3)no2)cc1 |
| 7.08 | 3.29 |  |  |  |  |  |  | Cc1nc2cc(-c3noc(-c4cccnc4)n3)ccc2o1 |
| 5.46 | 4.64 | 6.78 | 7.31 | 3.14 | 4.11 | 2.26 | 7.64 | Cc1nc2cc(-c3noc(/C=C/c4ccccc4)n3)ccc2o1 |
| 4.28 | 1.38 |  |  |  |  |  |  | CCc1cc(O)nc(SCc2nc(-c3ccc(Cl)c(F)c3)no2)n1 |
| 3.2 | 1.73 |  |  |  |  |  |  | Cc1nc2cc(-c3noc(Cc4ccc(F)cc4)n3)ccc2o1 |
| 7.98 | 4.38 | 8.94 | 4.88 | 2.35 | 3.95 | 1.89 | 2.51 | Cc1nc2cc(-c3noc(-c4ccc5[nH]cnc5c4)n3)ccc2o1 |
